Values after ≈ are worked out from the molar mass of the structure shown. Numbered stars: 1 amine (or outer) side, 2 acyl side, 3 side chain; on linkers, the order of the positions; unused ones are H or OH. Bridge positions count the residues as written; N and C are the ends. Square brackets hold non-standard residues; d marks the D form. Peptide text beside a SMILES is read from it. TBMB = c1c(C[*:1])cc(C[*:3])cc1C[*:2]
Tests used:
B. subtilis ATCC 6633 = experiment: microbe, parasite or virus in culture
Description: (§1) The L-peptides identified from five different phage display libraries were catalogued as described previously and selected sequences were synthesized in D-enantiomeric form by SPPS for further investigation in several biological assays.
(§2) MICs were determined according to a 96-well microdilution protocol outlined by the Clinical and Laboratory Standard Institute (CLSI) guideline with modifications for peptide antibiotics reported by Wiegand et al.^35 Two-fold serial peptide dilutions were performed to go from 2560 μg/ml to 5 μg/ml in0.2% BSA and 0.01% acetic acid buffer in 96-well polypropylene plates (COSTAR, #3879). Dilution of bacterial suspensions (1:200) of different bacterial strains that were grown until 0.5 McFarland standard were prepared to obtain a final inoculum concentration of 8×10^5 CFU/ml in Mueller-Hinton broth.

E. faecalis ATCC 29121 = experiment: microbe, parasite or virus in culture
Description: as §1, §2

[1] = tested on: Methicillin-resistant S. aureus (MRSA) ATCC 43300; experiment: microbe, parasite or virus in culture
Description: as §1, §2

[2] = tested on: low level vancomycin resistant E. faecium (vanB) ATCC 51299; experiment: microbe, parasite or virus in culture
Description: as §1, §2

E. coli ATCC 25992 = experiment: microbe, parasite or virus in culture
Description: as §1, §2

S. aureus ATCC 6538 = experiment: microbe, parasite or virus in culture
Description: as §1, §2

[3] = tested on: high level vancomycin resistant E. faecium (vanA) ATCC 51559; experiment: microbe, parasite or virus in culture
Description: as §1, §2

[4] = tested on: several Gram-positive strains (with one Gram-negative strain as control); experiment: MIC / antibiotic susceptibility, strains not singled out; assay type: cell-based; conditions: vancomycin-sensitive bacteria
Description: as §1, §2

[5] = tested on: human red blood cells (hRBC); experiment: Hemolytic activity; assay type: cell-based; conditions: concentrations up to 256 μg/ml
Description: Fresh red human blood cells (hRBC) were washed and centrifuged at 3000 rpm for 5 min at 4° C. with PBS until a clear solution was obtained. Two-fold serial dilutions of each peptide in PBS from 0.5 μg/ml to 256 μg/ml were incubated with 0.25% (v/v) hRBC suspension at 37° C. for 1 h, and then centrifuged for 5 min at 3500 rpm in 96-well plate. 50 μl of the supernatant from each well was diluted with 50 μl pure water, and the OD at 415 nm was measured using microplate reader. Melittin at the same concentrations (200 μg/ml for complete lysis) was used as a positive control. Percent hemolysis was calculated according to the equation: […]
where complete hemolysis was defined as the average hemolysis of all wells containing a final concentration of melittin ranging from 50 to 400 μg/ml. Experiments were performed as triplicates at different days.

[6] = Table 6, low level vancomycin resistant E. faecium ATCC51299
[7] = Table 6, high level vancomycin resistant E. faecium ATCC51559

Compound	MIC B. subtilis (B. subtilis ATCC 6633; ATCC 6633)	MIC E. faecalis (E. faecalis ATCC 29121; ATCC 29121)	MIC MRSA ([1]; ATCC 43300)	MIC VRE (vanB) ([2]; Table 5, low level vancomycin resistant E. faecium ATCC 51299)	MIC E. coli (E. coli ATCC 25992; ATCC 25992)	MIC S. aureus (S. aureus ATCC 6538; ATCC 6538)	MIC VRE (vanA) ([3]; ATCC 51559)	MIC B. subtilis (B. subtilis ATCC 6633; Table 6, B. subtilis ATCC6633)	MIC E. faecalis (E. faecalis ATCC 29121; Table 6, E. faecalis ATCC29121)	MIC MRSA ([1]; Table 6, MRSA ATCC43300)	MIC VRE (vanB) [2, 6]	MIC E. coli (E. coli ATCC 25992; Table 6, E. Coli ATCC25992)	MIC S. aureus (S. aureus ATCC 6538; Table 6, S. aureus ATCC6538)	MIC VRE (vanA) [3, 7]	activity against vanB / low-level vancomycin-resistant strain [2]	activity against vancomycin-sensitive bacterial strains [4]	lysis / toxicity on red blood cells [5]
CC[C@@H](C)[C@H]1NC(=O)[C@@H](CC(N)=O)NC(=O)[C@@H](CC(=O)O)NC(=O)[C@H](N)CSSC[C@H](C(N)=O)NC(=O)[C@@H](C(C)C)NC(=O)[C@H]2CCCN2C(=O)[C@@H]([C@H](C)O)NC(=O)[C@@H](CCSC)NC1=O [P13, CDNIMTPVC] (H-[dC][dD][dN][dI][dM][dT][dP][dV][dC]-NH2; disulfide 1-9)	64 µg/mL (≈ 64.5 µM)	128 µg/mL (≈ 129 µM)	64 µg/mL (≈ 64.5 µM)	>256 µg/mL	>256 µg/mL	64 µg/mL (≈ 64.5 µM)	>256 µg/mL	–	–	–	–	–	–	–	–	–	–
CSCC[C@H]1NC(=O)[C@@H](CC(=O)O)NC(=O)[C@H]2CSCc3cc(cc(c3)CSC[C@H](C(N)=O)NC(=O)[C@@H](Cc3c[nH]cn3)NC(=O)[C@@H](CC(C)C)NC1=O)CSC[C@@H](N)C(=O)N[C@H](CCC(N)=O)C(=O)N[C@H](Cc1ccc(O)cc1)C(=O)N[C@H](CC(N)=O)C(=O)N[C@H](CC(=O)O)C(=O)N2 [P16, COYNDCDMLHC] (H-[dC][dQ][dY][dN][dD][dC][dD][dM][dL][dH][dC]-NH2; linker 1-6-11 via TBMB)	–	–	–	–	–	–	–	64 µg/mL (≈ 43.9 µM)	128 µg/mL (≈ 87.8 µM)	128 µg/mL (≈ 87.8 µM)	>256 µg/mL	>256 µg/mL	64 µg/mL (≈ 43.9 µM)	>256 µg/mL	–	–	–
CC[C@@H](C)[C@H]1NC(=O)[C@@H](C(C)C)NC(=O)[C@H]2CSCc3cc(cc(c3)CSC[C@H](C(N)=O)NC(=O)[C@@H](CC(=O)O)NC1=O)CSC[C@@H](N)C(=O)N[C@H](CC(C)C)C(=O)N[C@H](CO)C(=O)N[C@H](CCC(N)=O)C(=O)N[C@H](Cc1ccccc1)C(=O)N2 [P17, CLSQFCVIDC] (H-[dC][dL][dS][dQ][dF][dC][dV][dI][dD][dC]-NH2; linker 1-6-10 via TBMB)	–	–	–	–	–	–	–	128 µg/mL (≈ 103 µM)	>256 µg/mL	>256 µg/mL	>256 µg/mL	>256 µg/mL	128 µg/mL (≈ 103 µM)	>256 µg/mL	–	–	–
CC(C)C[C@H]1NC(=O)[C@@H](CCC(N)=O)NC(=O)[C@@H](CO)NC(=O)[C@@H](CO)NC(=O)[C@@H](CO)NC(=O)[C@H]2CSCc3cc(cc(c3)CSC[C@H](C(N)=O)NC(=O)[C@@H](Cc3ccc(O)cc3)NC1=O)CSC[C@@H](N)C(=O)N[C@H]([C@H](C)O)C(=O)N[C@H](CCCNC(=N)N)C(=O)N[C@H](C(C)C)C(=O)N2 [P19, CTRVCSSSQLYC] (H-[dC][dT][dR][dV][dC][dS][dS][dS][dQ][dL][dY][dC]-NH2; linker 1-5-12 via TBMB)	–	–	–	–	–	–	–	128 µg/mL (≈ 87.5 µM)	>256 µg/mL	>256 µg/mL	>256 µg/mL	>256 µg/mL	128 µg/mL (≈ 87.5 µM)	>256 µg/mL	–	–	–
CC(C)[C@H]1NC(=O)CNC(=O)[C@@H](Cc2ccccc2)NC(=O)[C@H]2CSCc3cc(cc(c3)CSC[C@H](C(N)=O)NC(=O)[C@@H](CO)NC(=O)[C@@H](CCC(N)=O)NC1=O)CSC[C@@H](N)C(=O)NCC(=O)N[C@H](C)C(=O)N[C@H](CCC(N)=O)C(=O)NCC(=O)N2 [P20, CGAQGCFGVQSC] (H-[dC]G[dA][dQ]G[dC][dF]G[dV][dQ][dS][dC]-NH2; linker 1-6-12 via TBMB)	–	–	–	–	–	–	–	32 µg/mL (≈ 25.1 µM)	256 µg/mL (≈ 201 µM)	256 µg/mL (≈ 201 µM)	256 µg/mL (≈ 201 µM)	>256 µg/mL	32 µg/mL (≈ 25.1 µM)	>256 µg/mL	–	–	–
CGGGICRTHNC [P18]	–	–	–	–	–	–	–	16 µg/mL	128 µg/mL	32 µg/mL	128 µg/mL	>256 µg/mL	16 µg/mL	>256 µg/mL	moderate activity	excellent activity	neither caused lysis of erythrocytes

Reference: US20220211796A1, “PEPTIDE ANTIBIOTICS AND METHODS OF USE THEREOF” (priority 2019, published 2022)
